Laboratory results: PubChem BioAssay AID1963960 (Molecular Pharmacology Branch, DTP, NCI, 2024)

Test system: MDA-MB-468 spheroids with HUVEC/MSC, viability
Experiment: Anticancer human tumor MDA-MB-468 cell line growth inhibition [PI3K];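 also: spheroids exposed to agents for seven days before readout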;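 as to viability, T/C: 100% = DMSO vehicle control viability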
Conditions: for IC50: curve of first compound; for viability, T/C: stronger effect = lower value
Summary of the method: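 Complex 3D spheroids (cancer cells + endothelial HUVEC + mesenchymal stem cells); drug pairs of targeted agent x inavolisib/alpelisib/duvelisib/copanlisib; half-log series from ~Cmax, max 10 microM if Cmax unknown; endpoint viability.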

[1] = second compound 0.0316 µM, first compound 0.0316 µM
[2] = second compound 0.0316 µM, first compound 0.1 µM
[3] = second compound 0.0316 µM, first compound 0.316 µM
[4] = second compound 0.0316 µM, first compound 1 µM
[5] = second compound 0.1 µM, first compound 0.0316 µM
[6] = second compound 0.1 µM, first compound 0.1 µM
[7] = second compound 0.1 µM, first compound 0.316 µM
[8] = second compound 0.1 µM, first compound 1 µM
[9] = second compound 0.316 µM, first compound 0.0316 µM
[10] = second compound 0.316 µM, first compound 0.1 µM
[11] = second compound 0.316 µM, first compound 0.316 µM
[12] = second compound 0.316 µM, first compound 1 µM
[13] = second compound 1 µM, first compound 0.0316 µM
[14] = second compound 1 µM, first compound 0.1 µM
[15] = second compound 1 µM, first compound 0.316 µM
[16] = second compound 1 µM, first compound 1 µM
[17] = second compound 3.16 µM, first compound 0.0316 µM
[18] = second compound 3.16 µM, first compound 0.1 µM
[19] = second compound 3.16 µM, first compound 0.316 µM
[20] = second compound 3.16 µM, first compound 1 µM
[21] = second compound 10 µM, first compound 0.0316 µM
[22] = second compound 10 µM, first compound 0.1 µM
[23] = second compound 10 µM, first compound 0.316 µM
[24] = second compound 10 µM, first compound 1 µM

What does the source list for `CC(C)NCC(C(=O)N1CCN(c2ncnc3c2C(C)CC3O)CC1)c1ccc(Cl)cc1` (centres undefined) + CC(Nc1ncnc2nc[nH]c12)c1cc2cccc(Cl)c2c(=O)n1-c1ccccc1?
IC50 (second compound 0.0316 µM): 1170 nM; IC50 (second compound 0.1 µM): 1010 nM; IC50 (second compound 0.316 µM): 1220 nM; IC50 (second compound 1 µM): 654 nM; IC50 (second compound 3.16 µM): 260 nM; IC50 (second compound 10 µM): < 31.6 nM; viability, T/C [1]: 97.6%; viability, T/C [2]: 86.2%; viability, T/C [3]: 76.4%; viability, T/C [4]: 50.4%; viability, T/C (second compound 0.0316 µM, first compound 3.16 µM): 36%; viability, T/C (second compound 0.0316 µM, first compound 10 µM): 25.7%; viability, T/C [5]: 78.1%; viability, T/C [6]: 87.9%; viability, T/C [7]: 77.5%; viability, T/C [8]: 48.3%; viability, T/C (second compound 0.1 µM, first compound 3.16 µM): 38.5%; viability, T/C (second compound 0.1 µM, first compound 10 µM): 25.8%; viability, T/C [9]: 73.1%; viability, T/C [10]: 80.2%; viability, T/C [11]: 76.9%; viability, T/C [12]: 51.2%; viability, T/C (second compound 0.316 µM, first compound 3.16 µM): 38.5%; viability, T/C (second compound 0.316 µM, first compound 10 µM): 27.4%; viability, T/C [13]: 72.2%; viability, T/C [14]: 64.9%; viability, T/C [15]: 59.1%; viability, T/C [16]: 46.4%; viability, T/C (second compound 1 µM, first compound 3.16 µM): 29.9%; viability, T/C (second compound 1 µM, first compound 10 µM): 27%; viability, T/C [17]: 57.5%; viability, T/C [18]: 57.7%; viability, T/C [19]: 47%; viability, T/C [20]: 40.8%; viability, T/C (second compound 3.16 µM, first compound 3.16 µM): 32.6%; viability, T/C (second compound 3.16 µM, first compound 10 µM): 25.6%; viability, T/C [21]: 46.4%; viability, T/C [22]: 41.2%; viability, T/C [23]: 42.2%; viability, T/C [24]: 34.7%; viability, T/C (second compound 10 µM, first compound 3.16 µM): 26.4%; viability, T/C (second compound 10 µM, first compound 10 µM): 21.4%

Which IC50 (second compound 0.0316 µM) does the source give for `CCN1CCN(Cc2ccc(Nc3ncc(F)c(-c4cc(F)c5nc(C)n(C(C)C)c5c4)n3)nc2)CC1` + CC(Nc1ncnc2nc[nH]c12)c1cc2cccc(Cl)c2c(=O)n1-c1ccccc1 here?
The IC50 was greater than 1000 nM.

And the IC50 (second compound 0.1 µM)?
The IC50 was greater than 1000 nM.

What about the IC50 (second compound 0.316 µM) of the same molecule?
Its IC50 is greater than 1000 nM.

What about the IC50 (second compound 1 µM) of the same molecule?
The IC50 was greater than 1000 nM.

And the IC50 (second compound 3.16 µM)?
The IC50 was greater than 1000 nM.

What about the IC50 (second compound 10 µM) of the same molecule?
Its IC50 is less than 3.16 nM.

And the viability, T/C (second compound 0.0316 µM, first compound 0.00316 µM)?
Its viability, T/C is 98.7%.

What about the viability, T/C (second compound 0.0316 µM, first compound 0.01 µM) of the same molecule?
The viability, T/C was 89.8%.

And the viability, T/C [1]?
The viability, T/C was 88.1%.

And the viability, T/C [2]?
The viability, T/C was 88.1%.

What about the viability, T/C [3] of the same molecule?
Its viability, T/C is 85.3%.

What about the viability, T/C [4] of the same molecule?
The viability, T/C was 67.9%.

What about the viability, T/C (second compound 0.1 µM, first compound 0.00316 µM) of the same molecule?
Its viability, T/C is 85.3%.

What about the viability, T/C (second compound 0.1 µM, first compound 0.01 µM) of the same molecule?
The viability, T/C was 92.7%.

And the viability, T/C [5]?
The viability, T/C was 94.1%.

What about the viability, T/C [6] of the same molecule?
The viability, T/C was 93.7%.

What about the viability, T/C [7] of the same molecule?
Its viability, T/C is 79.3%.

And the viability, T/C [8]?
The viability, T/C was 60.1%.

What about the viability, T/C (second compound 0.316 µM, first compound 0.00316 µM) of the same molecule?
The viability, T/C was 78.3%.

What about the viability, T/C (second compound 0.316 µM, first compound 0.01 µM) of the same molecule?
The viability, T/C was 81.1%.

What about the viability, T/C [9] of the same molecule?
Its viability, T/C is 82.3%.

And the viability, T/C [10]?
Its viability, T/C is 65.5%.

And the viability, T/C [11]?
The viability, T/C was 81%.

What about the viability, T/C [12] of the same molecule?
The viability, T/C was 56.6%.

What about the viability, T/C (second compound 1 µM, first compound 0.00316 µM) of the same molecule?
Its viability, T/C is 58.2%.

And the viability, T/C (second compound 1 µM, first compound 0.01 µM)?
Its viability, T/C is 70%.

And the viability, T/C [13]?
The viability, T/C was 69.5%.

What about the viability, T/C [14] of the same molecule?
Its viability, T/C is 61.7%.

And the viability, T/C [15]?
The viability, T/C was 56.9%.

And the viability, T/C [16]?
Its viability, T/C is 51.5%.

What about the viability, T/C (second compound 3.16 µM, first compound 0.00316 µM) of the same molecule?
Its viability, T/C is 60.9%.

What about the viability, T/C (second compound 3.16 µM, first compound 0.01 µM) of the same molecule?
The viability, T/C was 57.4%.

And the viability, T/C [17]?
The viability, T/C was 57.9%.

And the viability, T/C [18]?
The viability, T/C was 53.7%.

What about the viability, T/C [19] of the same molecule?
The viability, T/C was 55.1%.

And the viability, T/C [20]?
Its viability, T/C is 48.1%.

And the viability, T/C (second compound 10 µM, first compound 0.00316 µM)?
The viability, T/C was 40.9%.

What about the viability, T/C (second compound 10 µM, first compound 0.01 µM) of the same molecule?
The viability, T/C was 42.4%.

What about the viability, T/C [21] of the same molecule?
Its viability, T/C is 41%.

And the viability, T/C [22]?
The viability, T/C was 40%.

What about the viability, T/C [23] of the same molecule?
Its viability, T/C is 37.8%.

What about the viability, T/C [24] of the same molecule?
Its viability, T/C is 31.8%.
